From PubChem BioAssay (NCI)
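96-well plates; 48 h exposure; 5 concentrations. Endpoints by linear interpolation between flanking doses. Not reached: highest tested concentration assigned. Abbreviation: GI50, concentration required for 50% inhibition of growth. At the TGI there is no net growth.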

Experiments:
Assay in all cases: NCI-60 cell line screen, 48 h
OVCAR-5 ovarian = tested on: OVCAR-5 ovarian
SK-MEL-28 melanoma = tested on: SK-MEL-28 melanoma
BT-549 breast = tested on: BT-549 breast
NCI-H522 lung = tested on: NCI-H522 lung
PC-3 prostate = tested on: PC-3 prostate
OVCAR-8 ovarian = tested on: OVCAR-8 ovarian
RXF 393 renal = tested on: RXF 393 renal
NCI-H460 lung = tested on: NCI-H460 lung
HS 578T breast = tested on: HS 578T breast
HL-60(TB) leukemia = tested on: HL-60(TB) leukemia

SMILES	GI50 (OVCAR-5 ovarian)	TGI (OVCAR-5 ovarian)	GI50 (SK-MEL-28 melanoma)	TGI (SK-MEL-28 melanoma)	GI50 (BT-549 breast)	TGI (BT-549 breast)	GI50 (NCI-H522 lung)	TGI (NCI-H522 lung)	GI50 (PC-3 prostate)	TGI (PC-3 prostate)	GI50 (OVCAR-8 ovarian)	TGI (OVCAR-8 ovarian)	GI50 (RXF 393 renal)	TGI (RXF 393 renal)	GI50 (NCI-H460 lung)	TGI (NCI-H460 lung)	TGI (HS 578T breast)	TGI (HL-60(TB) leukemia)	GI50 (HL-60(TB) leukemia)	GI50 (HS 578T breast)
CCCCCCCCCN=C(N)c1ccc(N2CCN(c3ccc(C(N)=NCCCCCCCCC)cc3)CC2)cc1	3.13 µM	11 µM	1.6 µM	4.27 µM	1.13 µM	2.71 µM	2.36 µM	21.4 µM	1.74 µM	5.87 µM	1.62 µM	5.95 µM	1.04 µM	3.01 µM	1.61 µM	5.13 µM				
O=C(CCN1CCCCC1)c1csc2ccccc12		> 100 µM		> 100 µM		> 100 µM		> 100 µM		> 100 µM		> 100 µM		> 100 µM		> 100 µM	> 100 µM			
COc1cc(-c2oc3c(OC)c(O)c(OC)c(O)c3c(=O)c2OC)cc(OC)c1OC		> 100 µM		> 100 µM		> 100 µM		81.8 µM		> 100 µM		> 100 µM				> 100 µM	64.9 µM	> 100 µM		
COC(=O)C1c2cc3c(c(O)c2CCC1(C)O)C(=O)c1c(O)cc2c(c1C3=O)OC1OC2(C)C(O)C(N(C)C)C1O (configuration not stated)		1.03 µM		15.7 µM				2.81 µM		1.79 µM		0.591 µM		1.55 µM		2.11 µM	3.77 µM	2.8 µM		
CCCCCc1cc(/C=C2/N=C(c3ccc[nH]3)C=C2OC)[nH]c1C		1.26 µM		0.805 µM		0.292 µM		0.209 µM		1.06 µM		1.25 µM		0.197 µM		1.26 µM	0.0191 µM			
COc1ccc2c(c1)OCC1c3cc(OC)c4ccccc4c3OC21 (configuration not stated)	10.2 µM	57 µM	9.13 µM	> 100 µM	11.5 µM	97.2 µM			8.82 µM	> 100 µM	44.4 µM	> 100 µM	9.41 µM	46 µM	4.44 µM	> 100 µM	37 µM	9.61 µM	2.61 µM	11.3 µM
CC1(C)CC[C@]23CC[C@]4(C)[C@H](CC[C@@H]5[C@@]6(C)CCCNC(C)(C)[C@@H]6CC[C@]54C)[C@H]2[C@H]1OC3	1.6 µM	3.04 µM	1.66 µM	3.18 µM			1.9 µM	3.77 µM	1.61 µM	3.17 µM			1.56 µM	2.98 µM	0.646 µM	2.2 µM	4.69 µM			1.96 µM
CCOC(=O)CCc1c(C)c2c(OC)cc(OC)cc2oc1=O		> 100 µM		> 100 µM				> 100 µM				> 100 µM		82.4 µM		> 100 µM		> 100 µM		
CCN(N=O)C1C2(CCCC2)NC(=O)C12CCCC2 (configuration not stated)		> 100 µM		> 100 µM								> 100 µM		> 100 µM		> 100 µM		> 100 µM		
CC(=O)[O-].CC(=O)[O-].O=C([CH-]C(=O)c1ccccc1)c1ccccc1.[Nd+3].[OH3+]	68.4 µM	> 100 µM	23.3 µM	81.2 µM			13.2 µM	43.6 µM			15.8 µM	> 100 µM			16.7 µM	> 100 µM		31.8 µM	7.85 µM	
NC(=O)c1c[nH]c2ncnc(N)c12	> 100 µM	> 100 µM	58.8 µM	> 100 µM	21.6 µM	> 100 µM	> 100 µM	> 100 µM	30.3 µM	> 100 µM	90.2 µM	> 100 µM			45.1 µM	> 100 µM	> 100 µM	> 100 µM	32.3 µM	36.4 µM
O=C(O)C1=Cc2cccc3cccc(c23)C1=O		> 100 µM		> 100 µM				> 100 µM				> 100 µM		> 100 µM		> 100 µM		> 100 µM		
CC(=O)OC(C(=O)[O][Ge]([CH3])([CH3])[CH3])c1ccccc1 (configuration not stated)	> 100 µM	> 100 µM	> 100 µM	> 100 µM			> 100 µM	> 100 µM			> 100 µM	> 100 µM	0.264 µM	7.09 µM	> 100 µM	> 100 µM		> 100 µM		
Cc1ccc2ncnc(N(C)C3CCCCC3)c2c1	41.2 µM	> 100 µM	40 µM	> 100 µM			39 µM	> 100 µM	27.1 µM	87.4 µM	14.6 µM	63.8 µM	3.84 µM	17.9 µM	25.3 µM	> 100 µM	> 100 µM			> 100 µM
CC(=O)Oc1ccc2c(=O)c(C(C)=O)coc2c1		> 100 µM		> 100 µM				> 100 µM				> 100 µM		> 100 µM		> 100 µM		> 100 µM		
Cc1[nH]c(=O)n2c(C)nnc2c1C(=O)O		> 100 µM		> 100 µM				> 100 µM				> 100 µM		> 100 µM		> 100 µM		> 100 µM		
CCCCCOC(=O)Nc1nc(=O)n(C2OC(C)C(O)C2O)cc1F (configuration not stated)	> 10000 µM	> 10000 µM	> 10000 µM	> 10000 µM			> 10000 µM	> 10000 µM	> 10000 µM	> 10000 µM	> 10000 µM	> 10000 µM						> 10000 µM	5070 µM	
COC(=O)c1cc(O)ccc1O		> 100 µM		> 100 µM				> 100 µM				> 100 µM		> 100 µM		> 100 µM		> 100 µM		
O=C1NC(c2ccc3ccccc3c2)Nc2ccccc21 (configuration not stated)				> 100 µM		37.1 µM				> 100 µM		> 100 µM		> 100 µM		> 100 µM	> 100 µM	> 100 µM		
O=C(O)c1ccc(CSc2nc3ccccc3[nH]2)cc1	> 100 µM	> 100 µM	> 100 µM	> 100 µM			> 100 µM	> 100 µM	> 100 µM	> 100 µM	> 100 µM	> 100 µM	> 100 µM	> 100 µM	> 100 µM	> 100 µM	> 100 µM	> 100 µM	> 100 µM	> 100 µM
